Measurements reported in EP4617273A1, “FUSED TRICYCLIC PARP1 INHIBITOR, PREPARATION METHOD THEREFOR, AND USE THEREOF” (Haihe Biopharma Co., Ltd., priority 2022, dated 2024).

Experiments:
[1] = target: T1, Recombinant human PARP1 protein (Homo sapiens, UniProt P09874); test: biochemical
Experimental: (§1) The PARP1/2 inhibitory activity of the compounds of the present invention was tested in an assay using Histone as a substrate.
(§2) Aim of the assay: to test the PARP1/2 enzymatic activity inhibition IC50 values of the compounds of the present application according to established experimental methods.
(§3) 1. Compound Configuration: Dilute the compounds with DMSO in 384-well plates to a 1000-fold final concentration and set aside.
(§4) 1) Dilute Histone with PBS, add 25uL of Histone mixture to each well and incubate for 2 h. 2) Wash each well 5 times using PBST solution. Remove the solution with a clean paper towel.3) Add 75 uL of Blocking buffer to each well and incubate for 1 h at rt. 4) Wash each well 5 times using PBST solution. Remove the solution with a clean paper towel.
(§5) 2) Use 1× Assay buffer to prepare 2.5× final concentration of PARP1 solution. 3) Add 10 uL of enzyme solution to the compound wells and Max control wells; add 10 uL of 1× Assay buffer. […] 6) Centrifuge at 1000 rpm for 60 seconds and incubate at rt for 2 h. 7) Each well was washed 5 times with PBST solution. Remove the solution with a clean paper towel.
(§6) 1) Prepare Streptavidin-HRP solution, add 25 µL to each well, centrifuge at 1000 rpm for 60 sec, and incubate at rt for 30 min. 2) Wash each well 5 times using PBST solution. Remove the solution with a clean paper towel. 3) Add 50 µL of ELISA Chemiluminescent Substrate per well. 4) Centrifuge at 1000 rpm for 60 seconds and read with EnSight after 5 min.
(§7) The inhibition rate was calculated using the following formula: % inhibition = (max signal - compound signal) / (max signal - min signal) × 100, where 'min signal' is the mean value of negative control wells and 'max signal' is the mean value of positive control wells.
(§8) Fitting the quantitative effect curve: using the log value of the concentration as the X-axis and the percentage inhibition as the Y-axis; using the log(inhibitor) vs. response-variable slope method in software GraphPadPrism5 to fit the quantitative effect curve to calculate the IC50 value for the inhibition of the enzyme activity by the compounds of the present invention. The fitting formula is: Y=Bottom+ (Top-Bottom)/(1+10^((logIC50-X)*HillSlope)).

[2] = target: T1, Recombinant human PARP1 protein; test: PARP1 enzymatic inhibitory activity, histone substrate, chemiluminescent ELISA; conditions: PARP2 IC50 over PARP1 IC50
Experimental: as §1, §2, §3, §4, §5, §6, §7, §8

[3] = target: T2, recombinant human PARP2 protein (Homo sapiens, UniProt Q9UGN5); test: PARP2 enzymatic inhibitory activity, histone substrate, chemiluminescent ELISA; assay type: biochemical; conditions: histone substrate, 500 µM NAD+ not added; read-out: PARP2 IC50
T2 construct: purchased BPS 80502
Experimental: The PARP2 inhibitory activity assay was performed as in Experimental Method 1, except that PARP1 solution in step 2 of "3. Ribosylation reaction" was replaced with recombinant human PARP2 solution, and 500 µM NAD+ was not added in step 5 of the ribosylation reaction. Table 1. IC50 for inhibition of PARP1/2 enzymes by compounds of the present invention

[4] = tested on: MDA-MB-436 cells; test: MDA-MB-436 cell proliferation inhibition test (CellTiter-Glo, 7 days); assay type: cell-based; conditions: Homo sapiens, MDA-MB-436, 168 h, 7 days incubation
Experimental: Human breast cancer MDA-MB-436 (purchased from ATCC) cells were cultured in DMEM medium (supplemented with 10% fetal bovine serum with 1% dual antibody) at 37 °C, 5% CO2. The cells were taken from the logarithmic growth phase, digested and prepare cell suspension witha certain concentration, which was inoculated into 96-well plates. 100 µL of cell suspension was added to each well of the 96-well plates, incubated overnight, then different concentrations of compounds were added, and the cells were incubated in the cell culture incubator for 7 days. At the end of incubation, 50 µL of CellTiter-Glo reagent was added to each well, mixed with a microplate and shaked for 2 min, and left at rt for 60 min, then the fluorescence value was read with a Spark® multimode microplate reader. […] Table 2. proliferation inhibitory activity of compounds of the present invention on MDA-MB-436 cells

T1 sequence (P09874 whole entry): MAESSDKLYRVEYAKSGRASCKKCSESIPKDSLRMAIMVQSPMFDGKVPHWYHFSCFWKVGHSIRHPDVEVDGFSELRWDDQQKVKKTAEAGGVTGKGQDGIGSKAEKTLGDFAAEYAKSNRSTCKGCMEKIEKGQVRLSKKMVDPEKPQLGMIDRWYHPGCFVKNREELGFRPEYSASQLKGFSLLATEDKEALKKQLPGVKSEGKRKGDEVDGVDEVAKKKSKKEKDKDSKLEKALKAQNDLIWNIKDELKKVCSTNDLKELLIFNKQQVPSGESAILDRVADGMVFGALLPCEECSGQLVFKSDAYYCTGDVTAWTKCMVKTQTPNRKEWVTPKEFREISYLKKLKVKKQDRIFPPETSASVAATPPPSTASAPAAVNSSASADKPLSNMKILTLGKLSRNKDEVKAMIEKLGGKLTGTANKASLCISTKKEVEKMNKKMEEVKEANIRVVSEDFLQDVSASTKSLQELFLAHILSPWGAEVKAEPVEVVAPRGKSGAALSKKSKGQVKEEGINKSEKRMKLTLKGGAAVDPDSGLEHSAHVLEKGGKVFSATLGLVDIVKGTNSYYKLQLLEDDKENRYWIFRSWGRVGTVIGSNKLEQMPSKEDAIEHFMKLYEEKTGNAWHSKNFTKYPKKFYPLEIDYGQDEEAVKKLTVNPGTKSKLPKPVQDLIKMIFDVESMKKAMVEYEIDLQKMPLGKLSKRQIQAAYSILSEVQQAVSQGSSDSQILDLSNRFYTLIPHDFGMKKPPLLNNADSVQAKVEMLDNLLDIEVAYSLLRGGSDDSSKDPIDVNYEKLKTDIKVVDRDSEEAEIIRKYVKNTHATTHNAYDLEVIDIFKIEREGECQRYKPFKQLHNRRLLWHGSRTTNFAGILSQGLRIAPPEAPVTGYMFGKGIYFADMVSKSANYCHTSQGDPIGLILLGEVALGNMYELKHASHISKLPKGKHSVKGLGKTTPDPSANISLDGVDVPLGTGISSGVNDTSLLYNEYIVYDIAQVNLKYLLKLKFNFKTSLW
T2 sequence (Q9UGN5 whole entry): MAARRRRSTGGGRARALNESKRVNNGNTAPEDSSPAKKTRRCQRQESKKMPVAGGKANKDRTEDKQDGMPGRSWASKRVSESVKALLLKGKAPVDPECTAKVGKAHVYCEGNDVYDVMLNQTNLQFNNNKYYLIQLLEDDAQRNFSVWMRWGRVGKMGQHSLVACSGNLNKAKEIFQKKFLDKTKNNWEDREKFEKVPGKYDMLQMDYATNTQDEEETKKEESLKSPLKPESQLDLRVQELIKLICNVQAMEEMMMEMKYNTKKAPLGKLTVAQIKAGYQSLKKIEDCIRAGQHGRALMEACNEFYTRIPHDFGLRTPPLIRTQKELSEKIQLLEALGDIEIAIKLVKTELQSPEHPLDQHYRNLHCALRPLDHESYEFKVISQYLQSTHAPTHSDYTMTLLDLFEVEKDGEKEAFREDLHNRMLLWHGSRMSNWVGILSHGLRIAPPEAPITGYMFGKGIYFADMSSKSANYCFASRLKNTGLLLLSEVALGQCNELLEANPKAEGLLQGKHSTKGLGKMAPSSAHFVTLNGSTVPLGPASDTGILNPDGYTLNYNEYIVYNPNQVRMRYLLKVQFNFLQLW

Row | SMILES | IC50 [1] | PARP1/2 Fold selectivity [2] | IC50 [3] | IC50 [4]
1 | CNC(=O)c1ccc(N2CCN(C(C)c3ccc4c([nH]c(=O)c5cccn54)c3F)CC2)cn1 (centres unmarked) [Compound 8] | 2.04 nM | 57.9 | 118 nM | –
2 | CNC(=O)c1ccc(N2CCN(C(C)c3ccc4c([nH]c(=O)c5ccnn54)c3F)CC2)c(F)n1 (centres unmarked) [Compound 13] | 2.87 nM | 1098.6 | 3150 nM | –
3 | CNC(=O)c1ccc(N2CCN(C(C)c3ccc4c(c3)[nH]c(=O)c3cnn(C)c34)CC2)c(F)n1 (centres unmarked) [Compound 15] | 3.6 nM | 86.8 | 313 nM | –
4 | CNC(=O)c1ccc(N2CCN(C(C)c3ccc4c([nH]c(=O)c5cn(C)nc54)c3F)CC2)c(F)n1 (centres unmarked) [Compound 19] | 273 nM | – | – | –
5 | CNC(=O)c1ccc(N2CCN(Cc3ccc4c([nH]c(=O)c5cnnn54)c3F)CC2)c(F)n1 [Compound 26] | 17.7 nM | – | – | –
6 | CCNC(=O)c1ccc(N2CCN(Cc3ccc4c(c3F)NC(=O)N3C[C@@H](C)N=C43)CC2)c(C)n1 [Compound 34] | 1.83 nM | 426.4 | 780 nM | –
7 | CNC(=O)c1ccc(OC2CCN(Cc3ccc4c(c3)[nH]c(=O)c3ccnn34)C2)cn1 (centres unmarked) [Compound 75] | 16.5 nM | 113.5 | 1870 nM | –
8 | CC(c1ccc2c([nH]c(=O)c3ccnn32)c1F)N1CCN(c2ccc(C#N)cn2)CC1 (centres unmarked) [Compound 98] | 18.4 nM | – | – | –
9 | CC(c1ccc2c([nH]c(=O)c3ccnn32)c1F)N1CCN(c2ccc(F)cc2F)CC1 (centres unmarked) [Compound 99] | 571 nM | – | – | –
10 | O=C(N[C@@H]1CCOC1)c1ccc(N2CCN(Cc3ccc4c([nH]c(=O)c5ccnn54)c3F)CC2)c(F)n1 [Compound 112] | 14.2 nM | – | – | –
11 | CNC(=O)c1ccc(N2CCN(Cc3ccc4c(c3C)NC(=O)N3CCN=C43)CC2)c(F)n1 [Compound 127] | 7.3 nM | – | – | –
12 | CCNC(=O)c1ccc(N2CCN(Cc3ccc4c(c3F)NC(=O)N3CCN=C43)CC2)c(F)n1 [Compound 128] | 2.2 nM | – | – | –
13 | CNC(=O)c1ccc(N2CCN(Cc3ccc4c(c3F)NC(=O)N3CCN=C43)CC2)c(C)n1 [Compound 129] | – | – | – | < 1.52 nM
14 | Cc1nc(C(=O)NC2CC2)ccc1N1CCN(Cc2ccc3c(c2F)NC(=O)N2CCN=C32)CC1 [Compound 130] | 3.4 nM | – | – | –
15 | CNC(=O)c1ccc(N2CCN(Cc3ccc4c(c3Cl)NC(=O)N3CCN=C43)CC2)c(F)n1 [Compound 134] | 2.8 nM | 1313.2 | 3680 nM | –
16 | CNC(=O)c1ccc(N2CCN(Cc3cc4c(cc3Cl)C3=NCCN3C(=O)N4)CC2)c(F)n1 [Compound 135] | 9.6 nM | – | – | –
17 | CNC(=O)c1ccc(N2CCN(Cc3ccc4c(c3F)NC(=O)N3CC(C)(C)N=C43)CC2)c(F)n1 [Compound 136] | 11.3 nM | 785 | 8870 nM | –
18 | CNC(=O)c1ccc(N2CCN(Cc3ccc4c(c3F)NC(=O)N3CC[C@H](C)N=C43)CC2)c(F)n1 [Compound 142] | 5.6 nM | >1756 | > 10000 nM | –
19 | CNC(=O)c1ccc(N2CCN(Cc3ccc4c(c3F)NC(=O)N3CC[C@@H](C)N=C43)CC2)c(F)n1 [Compound 143] | 4.6 nM | – | – | –
20 | CNC(=O)c1ccc(N2CCN(Cc3ccc4c(c3F)NC(=O)N3C[C@H](F)CN=C43)CC2)c(Cl)n1 [Compound 146] | – | – | – | 12.4 nM
21 | CNC(=O)c1ccc(N2CCN(Cc3ccc4c(c3F)NC(=O)N3CC(F)(F)CN=C43)CC2)c(F)n1 [Compound 148] | – | – | – | 3.6 nM
22 | CNC(=O)c1ccc(C2CCN(Cc3ccc4c(c3F)NC(=O)N3C[C@@H](C)N=C43)CC2)c(Cl)n1 [Compound 194] | 2.2 nM | – | – | –
23 | O=C1Nc2c(ccc(CN3CCN(c4ccc(F)cc4F)CC3)c2F)C2=NCCCN12 [Compound 195] | 40.8 nM | – | – | –

More lines, in order of falling IC50 [1], values ahead:

Row | IC50 [1] | PARP1/2 Fold selectivity [2] | IC50 [3] | IC50 [4] | SMILES
24 | 1.7 nM | – | – | 9.3 nM | CNC(=O)c1ccc(N2CCN(Cc3ccc4c(c3)[nH]c(=O)c3cn(C)nc34)CC2)c(F)n1 [Compound 101]
25 | 1.7 nM | – | – | – | CNC(=O)c1ccc(N2CCN(Cc3ccc4c(c3F)NC(=O)N3C[C@@H](C)N=C43)CC2)cn1 [Compound 193]
26 | 1.6 nM | – | – | – | O=C(NC1CC1)c1ccc(N2CCN(Cc3ccc4c(c3F)NC(=O)N3CCCN=C43)CC2)c(Cl)n1 [Compound 202]
27 | 1.5 nM | – | – | 12.8 nM | CNC(=O)c1ccc(N2CCN(Cc3ccc4c(c3F)NC(=O)N3CCCN=C43)CC2)c(C)n1 [Compound 140]
28 | 1.5 nM | – | – | 21.5 nM | CNC(=O)c1ccc(N2CCN(Cc3ccc4c(c3F)NC(=O)N3C[C@H](C)N=C43)CC2)c(Cl)n1 [Compound 152]
29 | 1.5 nM | – | – | – | CNC(=O)c1ccc(N2CCN(Cc3ccc4c(c3F)NC(=O)N3CCCN=C43)CC2)c(C(F)F)n1 [Compound 204]
30 | 1.4 nM | – | – | – | CNC(=O)c1ccc(N2CCN(Cc3ccc4c(c3F)NC(=O)N3C[C@@H](C)N=C43)CC2)c(C(F)F)n1 [Compound 203]
31 | 1.3 nM | – | – | 5.4 nM | CNC(=O)c1ccc(N2CCN(Cc3ccc4c(c3F)NC(=O)N3CCN=C43)CC2)c(Cl)n1 [Compound 126]
32 | 1.3 nM | – | – | 8.1 nM | CNC(=O)c1ccc(N2CCN(Cc3ccc4c(c3F)NC(=O)N3C[C@@H](C)N=C43)CC2)c(C)n1 [Compound 153]
33 | 1.2 nM | – | – | 28.7 nM | CNC(=O)c1ccc(N2CCN(Cc3ccc4c(c3F)NC(=O)N3C[C@H](C)N=C43)CC2)c(F)n1 [Compound 133]
34 | 1.13 nM | – | – | – | CCNC(=O)c1ccc(N2CCN(Cc3ccc4c(c3F)NC(=O)N3CCCN=C43)CC2)c(C)n1 [Compound 184]
35 | 1.1 nM | – | – | 17.5 nM | CNC(=O)c1ccc(N2CCN(Cc3ccc4c(c3F)NC(=O)N3C[C@H](C)N=C43)CC2)c(C)n1 [Compound 151]
36 | 1.07 nM | 524.6 | 561 nM | – | CNC(=O)c1ccc(N2CCN(Cc3ccc4c(c3)NC(=O)N3CCN=C43)CC2)c(F)n1 [Compound 124]
37 | 1 nM | – | – | – | CNC(=O)c1ccc(N2CCN(Cc3ccc4c(c3)NC(=O)N3CCCN=C43)CC2)c(C)n1 [Compound 192]
38 | 0.95 nM | – | – | – | C[C@@H]1CN2C(=O)Nc3c(ccc(CN4CCN(c5ccc(C#N)cn5)CC4)c3F)C2=N1 [Compound 187]
39 | 0.85 nM | – | – | – | CNC(=O)c1ccc(N2CCN(Cc3ccc4c([nH]c(=O)c5cscc54)c3F)CC2)c(F)n1 [Compound 80]
40 | 0.8 nM | – | – | 27.4 nM | CNC(=O)c1ccc(N2CCN(Cc3ccc4c(c3F)NC(=O)N3CCN=C43)CC2)c(F)n1 [Compound 123]

Row | IC50 [1] | PARP1/2 Fold selectivity [2] | IC50 [3] | IC50 [4] | SMILES
41 | 0.7 nM | – | – | – | CCNC(=O)c1ccc(N2CCN(Cc3ccc4c(c3F)NC(=O)N3CCCN=C43)CC2)c(F)n1 [Compound 171]
42 | 0.7 nM | – | – | 5.7 nM | CCNC(=O)c1ccc(N2CCN(Cc3ccc4c(c3F)NC(=O)N3C[C@@H](C)N=C43)CC2)c(F)n1 [Compound 172]
43 | 0.67 nM | – | – | – | CNC(=O)c1ccc(N2CCN(Cc3ccc4c(c3)NC(=O)N3C[C@@H](C)N=C43)CC2)c(Cl)n1 [Compound 189]
44 | 0.6 nM | – | – | – | CNC(=O)c1ccc(N2CCN(Cc3ccc4c([nH]c(=O)c5sccc54)c3F)CC2)c(F)n1 [Compound 77]
45 | 0.6 nM | – | – | 8.9 nM | CNC(=O)c1ccc(N2CCN(Cc3ccc4c(c3F)NC(=O)N3C[C@H](F)CN=C43)CC2)c(C)n1 [Compound 145]
46 | 0.6 nM | – | – | – | CNC(=O)c1ccc(O[C@H]2CN(Cc3ccc4c(c3F)NC(=O)N3C[C@@H](C)N=C43)[C@@H]2C)cn1 [Compound 199]
47 | 0.58 nM | – | – | 6.4 nM | CCNC(=O)c1ccc(N2CCN(Cc3ccc4c(c3F)NC(=O)N3CC(F)(F)CN=C43)CC2)c(F)n1 [Compound 186]
48 | 0.5 nM | – | – | – | CNC(=O)c1ccc(N2CCN(Cc3ccc4c(c3)[nH]c(=O)n3cc(C)nc43)CC2)c(F)n1 [Compound 117]
49 | 0.5 nM | – | – | – | C[C@@H]1CN2C(=O)Nc3c(ccc(CN4CCN(c5ccc(C(=O)NCC(F)F)nc5Cl)CC4)c3F)C2=N1 [Compound 198]
50 | 0.42 nM | 51.7 | 21.7 nM | – | CNC(=O)c1ccc(N2CCN(C(C)c3ccc4c(c3)[nH]c(=O)c3cccn34)CC2)cn1 (centres unmarked) [Compound 6]
51 | 0.38 nM | 536.3 | 204 nM | – | CNC(=O)c1ccc(N2CCN(C(C)c3ccc4c([nH]c(=O)c5cccn54)c3F)CC2)c(F)n1 (centres unmarked) [Compound 7]
52 | 0.36 nM | – | – | 9.2 nM | CCNC(=O)c1ccc(N2CCN(Cc3ccc4c(c3F)NC(=O)N3CCCN=C43)CC2)c(Cl)n1 [Compound 183]
53 | 0.34 nM | – | – | – | CNC(=O)c1ccc(N2CCN(Cc3ccc4c(c3)NC(=O)N3C[C@@H](C)N=C43)CC2)c(C)n1 [Compound 190]
54 | 0.3 nM | – | – | – | CNC(=O)c1ccc(N2CCN(Cc3ccc4c(c3F)NC(=O)N3C[C@@H](C)N=C43)[C@H](C)C2)c(Cl)n1 [Compound 197]
55 | 0.22 nM | – | – | – | CNC(=O)c1ccc(N2CCN(Cc3ccc4c(c3)[nH]c(=O)c3cnn(C)c34)CC2)c(F)n1 [Compound 16]
56 | 0.15 nM | 115.3 | 17.3 nM | – | CNC(=O)c1ccc(N2CCN(C(C)c3ccc4c(c3)[nH]c(=O)c3cccn34)CC2)c(F)n1 (centres unmarked) [Compound 5]
